{"source": "patent US12576047B2", "about": "“Telomerase activating compounds for use in fertility and related applications” (Neuromagen Pharma Ltd, priority 2017, dated 2026)", "key": {"telomerase": {"target": "T1, telomerase (Mus musculus, UniProt O70372)", "T1 construct": "the ovaries were removed, and proteins extract used for measuring telomerase activity by TRAP assay; from tissue; host or cells: ovary of female ICR mice", "T1 sequence (O70372 1-1122)": "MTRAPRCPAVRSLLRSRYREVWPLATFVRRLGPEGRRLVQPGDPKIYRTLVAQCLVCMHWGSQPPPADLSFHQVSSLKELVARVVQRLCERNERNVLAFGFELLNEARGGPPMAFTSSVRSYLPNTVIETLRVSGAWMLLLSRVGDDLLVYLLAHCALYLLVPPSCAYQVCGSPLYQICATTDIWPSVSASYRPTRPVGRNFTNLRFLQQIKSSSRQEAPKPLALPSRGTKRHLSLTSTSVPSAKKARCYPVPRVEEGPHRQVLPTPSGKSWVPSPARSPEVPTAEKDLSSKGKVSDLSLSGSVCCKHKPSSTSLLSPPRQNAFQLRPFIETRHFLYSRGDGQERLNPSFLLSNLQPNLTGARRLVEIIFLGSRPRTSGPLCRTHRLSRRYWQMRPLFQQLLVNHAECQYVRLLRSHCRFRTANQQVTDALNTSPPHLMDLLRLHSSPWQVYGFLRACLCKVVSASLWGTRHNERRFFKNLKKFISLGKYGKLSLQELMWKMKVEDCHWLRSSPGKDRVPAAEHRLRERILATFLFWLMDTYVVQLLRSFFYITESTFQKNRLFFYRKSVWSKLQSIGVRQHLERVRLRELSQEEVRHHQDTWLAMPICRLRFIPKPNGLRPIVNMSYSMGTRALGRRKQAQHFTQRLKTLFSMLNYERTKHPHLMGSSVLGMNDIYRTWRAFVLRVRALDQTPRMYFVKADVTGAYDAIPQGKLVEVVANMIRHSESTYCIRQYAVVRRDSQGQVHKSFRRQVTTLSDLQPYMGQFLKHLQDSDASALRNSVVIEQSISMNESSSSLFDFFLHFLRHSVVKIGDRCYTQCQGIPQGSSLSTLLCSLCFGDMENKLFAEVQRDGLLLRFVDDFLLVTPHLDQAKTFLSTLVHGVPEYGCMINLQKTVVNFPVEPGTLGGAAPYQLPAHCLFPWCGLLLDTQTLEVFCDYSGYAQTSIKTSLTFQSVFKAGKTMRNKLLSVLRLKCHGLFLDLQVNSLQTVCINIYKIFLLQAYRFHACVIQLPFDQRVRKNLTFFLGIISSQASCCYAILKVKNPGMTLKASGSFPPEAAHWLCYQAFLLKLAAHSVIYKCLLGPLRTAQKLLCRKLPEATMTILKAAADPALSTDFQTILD", "assay": "Telomerase activity in mouse ovary by TRAP assay after s.c. injection", "assay_type": "in vivo", "conditions": "single dose 6 mg/Kg s.c., 12 hours", "method": "The ovaries were homogenized and centrifuged at 1200 RPM at 4° C. for 10 min, then suspended in CHAPS buffer (10 mM Tris-HCl pH-7.0, 1 mM MgCl2, 1 mM EDTA […], 0.1 mM PMSF, 0.5% 3 [(3 Cholamidopropyl)dimethylammonio]-propanesulfonic acid [CHAPS] and 10% glycerol) on ice for 30 min and centrifuged again at 13500 RPM at 4° C. for 30 min, the supernatant was collected. Total proteins concentration was determined using the Bio-Rad protein assay kit (Bio-Rad Laboratories, Germany).\nTelomerase activity in mice ovary was evaluated by a slight modification of the TRAP assay [Grin, Y., T. Admoni, and E. Priel, Telomerase activity in the various regions of mouse brain: non-radioactive telomerase repeat amplification protocol (TRAP) assay. J Vis Exp, 2014 (91): p. e51865]. […] These products were separated on a 4.5% high-resolution agarose mini-gel and detected with Gel-Red solution (X10000 stock solution diluted to X3 working solution with 0.01M NaCl) for 20 minutes. […] Quantification of Telomerase Activity\nTRAP assay products were quantified by densitometric analysis using the EZQuant software (EZQuant Ltd. Rehovot, Israel) and normalized to IS (Internal standard). […] The data which were normalized to the IS were calculated as % from the positive control values in each experiment. […]"}, "FSH": {"test_system": "FSH", "assay": "FSH expression by RT-PCR in pituitary gland cells", "assay_type": "cell-based, mouse", "conditions": "50 nM", "method": "FIGS. 29A, 29B, 29C and 29D: The embodied compounds affect the expression of gonadotropin hormones in pituitary gland cells. Cells (L T2) derived from the mouse pituitary gland were assessed for their secretion of LH and FSH at 6 (FIGS. 29A and 29B) and 12 hours (FIGS. 29C and 29D) following treatment with the indicated embodied compounds (50 nM). FSH and LH expression was determined by RT-PCR, and quantified from 5 different experiments, as assessed for significance, using the t test, one way ANOVA."}, "female ICR mice": {"test_system": "female ICR mice", "assay": "Estrous cycle stage by vaginal smears", "assay_type": "in vivo, mouse", "method": "Female ICR mice at least 3 months old were administered embodied compounds of this invention (Compound 79 and Compound 68) (6 mg/Kg) or DMSO alone (0.5%) by subcutaneous administration. Vaginal smears were taken at baseline and at 12 hours following the administration to determine estrous cycle stage and mice were then sacrificed."}, "[1]": {"conditions": "injected at the diestrus or metestrus stages"}, "[2]": {"conditions": "single dose injected in the proestrus or estrus stages"}}, "data": [{"smiles": "CCOCc1cc(C(C)(c2cc(COCC)c(O)c(COCC)c2)c2cc(COCC)c(O)c(COCC)c2)cc(COCC)c1O", "note": "[Compound 79]", "values": [{"measurement": "telomerase activity in mouse ovary at various ages", "setting": "telomerase; ages 10 days to 3 months", "result": "significantly increased telomerase activity only in the ovary of 3 months old mouse"}, {"measurement": "FSH expression", "setting": "FSH; 12 hours", "result": "decreased FSH levels"}, {"measurement": "estrous cycle stage 12 hrs post treatment", "setting": "female ICR mice; [1]", "result": "No changes in the estrous cycle stage"}, {"measurement": "estrous cycle stage 12 hrs post treatment", "setting": "female ICR mice; [2]", "result": "in the metestrus stage"}]}, {"smiles": "CC(c1cc(Br)c(O)c(Br)c1)(c1cc(Br)c(O)c(Br)c1)c1cc(Br)c(O)c(Br)c1", "note": "[Compound 68]", "values": [{"measurement": "increase of telomerase activity in mouse ovary", "setting": "telomerase; all examined ages (10 days, 18 days, 1 month, 3 months)", "result": "up to 1.5 fold"}, {"measurement": "FSH expression", "setting": "FSH; 6 hours, vs untreated", "result": "decreased FSH expression relative to untreated samples"}, {"measurement": "estrous cycle stage 12 hrs post treatment", "setting": "female ICR mice; [1]", "result": "No changes in the estrous cycle stage"}, {"measurement": "estrous cycle stage 12 hrs post treatment", "setting": "female ICR mice; [2]", "result": "in the metestrus stage"}]}]}
